Results as given in US9393221B2, “Methods and compounds for reducing intracellular lipid storage” (THE GENERAL HOSPITAL CORPORATION, priority 2011, dated 2016).
Counter-ions that a name gives are not always drawn.

Assays:
[1] = test system: ATGL-KO mice; assay: 18-week observer-blinded placebo-controlled treatment study; type: in vivo, mouse; details: for cardiac function (echocardiography): 14 weeks of age; for overall triglyceride content in the heart: 14 weeks old ATGL-KO mice (FIG. 8d)
Excerpt: FIGS. 8a-8f show graphs of the in vivo validation of the drug hit efficacy on ATGL-KO mice. (FIG. 8a) Kaplan-Meier survival plot of ATGL-KO mice treated with Mefloquine (N=15), Perhexyline (N=15), Vinpocetin low dose (N=15), Vinpocetin high dose (N=15), or water alone (N=15) (FIG. 8b) Contractile function of wild type mice treated with Mefloquine (Mef), Perhexyline (Per), Vinpocetin (Vin), and water (None) at 3 weeks of age before drug treatment (black) and at 18 weeks of age (white) after drug treatment. (FIG. 8c) Contractile function of ATGL-KO mice treated with Mef, Per, Vin, and water at 3 weeks of age before drug treatment (black) and at 10 (gray), and 14 (white) weeks of age after drug treatment. (FIG. 8d) Measurement of triglyceride content in hearts of 14 weeks old wild type (WT) and ATGL-KO (KO) mice after treatment with the indicated drugs. V (H)—vinpocetin high dose, V (L)—vinpocetin low dose. (FIG. 8e) Measurement of triglyceride content in the liver, lung, and kidney of WT mice (gray) and ATGL-KO mice treated with Per (red), Mef (green), V (H) (blue), V (L) (orange), or water (black). (FIG. 8f) Quantitative PCR analysis of metabolic gene expression in the hearts of 14 weeks old ATGL-KO mice treated with water (black), Per (red), and Mef (green) and in the hearts of age-matched WT mice (gray).
We designed an 18-week observer-blinded placebo-controlled study treating both wild type and ATGL-KO mice with mefloquine, perhexyline, and high and low doses of vinpocetin starting from 3 weeks after birth. We assess the survival of each animal throughout the entire treatment course. We also measured the cardiac function of each animal before treatment and at 10 and 14 weeks of age. […] The effect of these drugs on triglyceride content was observed variably in other tissues such as liver, lung, and kidney (FIG. 8e). While these drugs were able to elicit a similar reduction in triglyceride content, they appear to do so by recruiting genes involved in distinct pathways. (FIG. 8f)

[2] = test system: ATGL-KO iPSCs; assay: High throughput iPSC chemical screening, Oil Red O (ORO) lipid accumulation; type: cell-based, mouse; details: for Rank in normalized ORO score from screen: glycolytic switch compounds; for Z-score: normalized ORO level vs DMSO-treated cells, compound present during 7 days differentiation, 96-well, negative = decrease in lipid accumulation
[3] = test system: NLSD-M human iPSCs; assay: TG content in differentiated human iPSCs; type: cell-based; details: differentiated human NLSD-M iPSCs (FIG. 9b)
[4] = test system: WT iPSCs; assay: Cellular metabolism assay (OCR, ECAR); type: cell-based, mouse; details: for extracellular acidification rate (ECAR) / oxygen consumption rate (OCR): day 9 differentiated cells pre-treated overnight at screen concentration; for OCR/ECAR ratio after addition of CCCP: pre-treated cells (FIG. 7c)
Procedure: (§1) FIGS. 7a-7g depict that glycolytic switch inducers modulate the metabolic profile of WT and KO iPSCs. Measurement of (FIG. 7a) oxygen consumption rate (OCR) and (FIG. 7b) extracellular acidification rate (ECAR) in WT and KO iPSCs at day 10 of differentiation following compound pre-treatment for 16 h. Data are expressed as mean±s.d. (n=10 samples, with 3 measurements each) relative to DMSO-treated WT cells. (*P<0.001, student's t-test between compound-treated and DMSO ? treated cells of same type. **P<0.001, student's t-test between DMSO-treated WT and KO cells). Measurement of OCAR/ECAR ratios for drug-treated (FIG. 7c) WT and (FIG. 7d) KO iPSCs following treatment carbonyl cyanide m-chlorophenyl hydrazone (CCCP), at the time indicated (arrow). Antimycin, an electron transport chain inhibitor, was added to each well at the end of the assay to verify that mitochondrial function was intact in drug-treated cells. A schematic model of ATGL ? mediated lipid metabolism in shown for (FIG. 7e) WT cells, (FIG. 7f) KO cells, and (FIG. 7g) drug-treated KO cells.
(§2) We next investigated whether the top-scoring compounds with reported glycolytic switch properties could in fact modulate the OCR and ECAR of differentiated WT and KO iPSCs. We pre-treated day 9 differentiated cells overnight with mefloquine, vinpocetine, and perhexyline at their screen concentrations (Table 3) and measured the changes in OCR and ECAR. […] This is consistent with the increased adaptation to glucose in ATGL-KO cells.
(§3) To determine whether the glycolytic switch inducers work through common or distinct mechanisms, we next examined how the responses of ATGL-KO and WT cells to challenge with carbonyl cyanide m-chlorophenyl hydrazone (CCCP) differed upon pre-treatment with glycolytic switch inducers. CCCP is an uncoupler of the mitochondrial hydrogen gradient that induces maximal cellular oxidative respiration (Goldsby et al., 1963). […] This was due entirely to an increase in OCAR, as the ECAR levels remained relatively unchanged (data not shown).
(§4) ATGL-KO and WT iPSCs were differentiated as EBs to day 9, then collagenase-dissociated and re-plated onto gelatin-coated XF24 plates (Seahorse Bioscience, Andover, Mass.) at a density of 250,000 cells/well. Following an overnight incubation (12-16 hrs) in differentiation medium supplemented with drugs or DMSO, the cells were acclimated to atmospheric CO2 in drug-containing buffer-free medium (Wu, M. et al., 2007) for 1 hour at 37° C. Oxygen consumption rates (OCR) and extracellular acidification rates (ECAR) were measured on the Seahorse Extracellular Flux 24 Analyzer using previously established procedures (Gohil et al., 2010; Wu, M. et al., 2007) and normalized against cell number as assessed by the resazurin assay described above. In all wells, antimycin, an electron transport chain inhibitor, was added at the end of the assay to ascertain that mitochondrial function in the drug-treated cells had been intact and that the OCR and ECAR results were not due to direct mitochondrial toxicity effects from drug treatment.

[5] = test system: ATGL-KO iPSCs; assay: Cellular metabolism assay (OCR, ECAR); type: cell-based, mouse; details: for extracellular acidification rate (ECAR) / oxygen consumption rate (OCR): day 9 differentiated cells pre-treated overnight at screen concentration; for OCR/ECAR ratio after addition of CCCP: pre-treated cells (FIG. 7d)
Procedure: as §1, §2, §3, §4

`OC(c1cc(C(F)(F)F)nc2c(C(F)(F)F)cccc12)C1CCCCN1` (stereo not shown) [Mefloquine hydrochloride] was tested, and the “cardiac function (echocardiography)” value [1] was “echocardiographic improvements in cardiac function”, the “overall triglyceride content in the heart” value (“overall triglyceride content” below) [1] was “reduction in the overall triglyceride content in the heart” and the “Rank in normalized ORO score from screen” value [2] was 3. The Z-score [2] was −2.3573, the “intracellular lipid content (TG content)” value [3] was “significantly reduce intracellular lipid content” and the “extracellular acidification rate (ECAR)” value [4] was “increased ECAR”. For the same molecule, the “oxygen consumption rate (OCR)” value [4] was “decreased OCR”, the “OCR/ECAR ratio after addition of CCCP” value [4] was “increased the ratio of OCAR/ECAR” and the “extracellular acidification rate (ECAR)” value [5] was “increased ECAR”. The “oxygen consumption rate (OCR)” value [5] was “decreased OCR” and the “OCR/ECAR ratio after addition of CCCP” value [5] was “increased the ratio of OCAR/ECAR”.
For `C1CCC(C(CC2CCCCN2)C2CCCCC2)CC1` (stereo not shown) [Perhexiline maleate], the “cardiac function (echocardiography)” value [1] was “echocardiographic improvements in cardiac function”, the “overall triglyceride content” value [1] was “reduction in the overall triglyceride content in the heart” and the “Rank in normalized ORO score from screen” value [2] was 4. The Z-score [2] was −2.3117, the “extracellular acidification rate (ECAR)” value [4] was “increased ECAR” and the “oxygen consumption rate (OCR)” value [4] was “decreased OCR”. For the same molecule, the “OCR/ECAR ratio after addition of CCCP” value [4] was “no increase in the OCR/ECAR ratio”, the “impact on OCR in KO cells compared to WT cells” value [5] was “smaller impact on OCR in KO cells compared to WT cells” and the “extracellular acidification rate (ECAR)” value [5] was “increased ECAR”. The “oxygen consumption rate (OCR)” value [5] was “decreased OCR” and the “OCR/ECAR ratio after addition of CCCP” value [5] was “no increase in the OCR/ECAR ratio”.
With `CCOC(=O)C1=C[C@]2(CC)CCCN3CCc4c(n1c1ccccc41)[C@@H]32` [Vinpocetine] the “overall triglyceride content” value [1] was “reduction in the overall triglyceride content in the heart”, the “Rank in normalized ORO score from screen” value [2] was 2 and the Z-score [2] was −2.4105. The “extracellular acidification rate (ECAR)” value [4] was “increased ECAR”, the “oxygen consumption rate (OCR)” value [4] was “decreased OCR” and the “OCR/ECAR ratio after addition of CCCP” value [4] was “increased the ratio of OCAR/ECAR”. For the same molecule, the “extracellular acidification rate (ECAR)” value [5] was “increased ECAR”, the “oxygen consumption rate (OCR)” value [5] was “decreased OCR” and the “OCR/ECAR ratio after addition of CCCP” value [5] was “increased the ratio of OCAR/ECAR”.
In the case of Helveticoside, the Z-score [2] is reported as −0.1112.
Ifenprodil tartrate showed a Z-score [2] of 0.8399.
Iobenguane sulfate was tested, and the Z-score [2] was −0.2715.
Work on Iproniazide phosphate yielded a Z-score [2] of −0.4106.
Isoetharine mesylate salt was tested, and the Z-score [2] was −0.7902.
Work on Ketanserin tartrate hydrate yielded a Z-score [2] of 1.256.
In the case of Lycorine hydrochloride, the Z-score [2] is reported as 21.7885.
In the case of Mephentermine hemisulfate, the Z-score [2] is reported as 0.04889.
For Merbromin, the “Rank in normalized ORO score from screen” value [2] was 743 and the Z-score [2] was 0.2933.
Pizotifen malate was tested, and the Z-score [2] was −1.2994.
Work on Pridinol methanesulfonate salt yielded a Z-score [2] of 1.97.
For Pyrantel tartrate, the Z-score [2] was −0.1933.
With Retrorsine the Z-score [2] was 0.08676.
Work on S(−)Eticlopride hydrochloride yielded a Z-score [2] of −0.7335.
Molecule Solanine alpha has a Z-score [2] of −1.7798.
Spiramycin showed a Z-score [2] of −1.0612.
Terbutaline hemisulfate was tested, and the Z-score [2] was 2.278.
Thioproperazine dimesylate gave a Z-score [2] of −0.4051.
Timolol maleate salt gave a Z-score [2] of 0.4592.
Work on Trimeprazine tartrate yielded a Z-score [2] of −1.418.
For Trimipramine maleate salt, the Z-score [2] was −0.138.
Tropicamide showed a Z-score [2] of 0.5083.
Work on Tyloxapol yielded a Z-score [2] of 0.9571.
For Verteporfin, the Z-score [2] was −0.2331.
Viomycin sulfate showed a Z-score [2] of 1.64.
In the case of Vitamin K2, the Z-score [2] is reported as 0.6129.
